Experimental data as given in PMC12596218 (Journal of Lipid Research, 2025).
Several values for one entry are separate records, joined by “and”; a condition that tells them apart may be missing. Equal entries are not always repeated. Where two headings read alike, the source gives them in different places.

Assays:
NTCP = target: T1, NTCP (Homo sapiens, UniProt Q14973); assay: [3H]TC transport and inhibition assay in NTCP-HEK293 cells; assay type: cell-based; conditions: 1 μM [3H]TC; for IC50: 10 min, NTCP-HEK293, two independent experiments; for NTCP inhibition (in words): inhibitor up to 100 μM
T1 construct: stably transfected with the full open reading frames of human NTCP, ASBT, SOAT, OATP1B1, OATP1B3, OATP2B1, and murine Asbt (mAsbt); expressed in transfected cells; host or cells: HEK293 (Flp-In), stably transfected, tetracycline-induced
T1 sequence (Q14973 1-349): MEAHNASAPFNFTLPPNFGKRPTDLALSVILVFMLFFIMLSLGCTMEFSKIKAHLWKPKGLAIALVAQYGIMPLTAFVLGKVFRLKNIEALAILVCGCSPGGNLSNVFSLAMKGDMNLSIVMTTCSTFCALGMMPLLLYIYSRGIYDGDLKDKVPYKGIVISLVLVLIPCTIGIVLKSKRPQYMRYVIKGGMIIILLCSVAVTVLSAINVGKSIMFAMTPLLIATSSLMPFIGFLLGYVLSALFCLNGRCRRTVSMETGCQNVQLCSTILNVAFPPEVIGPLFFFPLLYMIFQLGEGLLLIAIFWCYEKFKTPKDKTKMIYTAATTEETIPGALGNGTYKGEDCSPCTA
Excerpt: (§1) Human embryonic kidney HEK293 cells, stably transfected with the full open reading frames of human NTCP, ASBT, SOAT, OATP1B1, OATP1B3, OATP2B1, and murine Asbt (mAsbt) were used as reported ([18], [20], [21], [22], [23]). The NTCP, ASBT, and mAsbt constructs were C-terminally tagged with the FLAG epitope, and the SOAT construct was C-terminally tagged with green fluorescent protein. Non-transfected Flp-In HEK293 cells (Thermo Fisher Scientific) served as the control. All cell lines were maintained at 37°C, 5% CO2 and 95% humidity in DMEM/F-12 medium (Thermo Fisher Scientific) supplemented with 10% fetal calf serum (Sigma-Aldrich), 4 mM L-glutamine (PAA) and penicillin/streptomycin (PAA). Expression of the respective carrier protein was induced by tetracycline treatment at 1 μg/ml (Carl Roth GmbH + Co. KG).
(§2) Cells were seeded onto poly-L-lysine-coated 96-well plates, induced with 1 μg/ml tetracycline, and grown to confluence over 72 h at 37°C. Then, cells were washed with tempered (37°C) phosphate-buffered saline (PBS, containing 137.0 mM NaCl, 2.7 mM KCl, 1.5 mM KH2PO4, and 7.3 mM Na2HPO4, at pH 7.4) and preincubated with 80 μl sodium transport buffer (STB, containing 142.9 mM NaCl, 4.7 mM KCl, 1.2 mM MgSO4, 1.2 mM KH2PO4, 1.8 mM CaCl2, and 20.0 mM HEPES, at pH 7.4) for 5 min at 37°C. For inhibition studies, the medium was replaced by 80 μl STB containing the respective inhibitor or solvent alone and cells were further incubated for 5 min at 37°C. Transport experiments were started by adding 20 μl of a 5-fold concentrated substrate solution (solved in STB). For transport experiments under sodium-free conditions the same buffer composition was used as for STB, but sodium chloride was substituted with equimolar concentrations of choline chloride as previously reported ([20], [24]). Transport experiments were stopped by washing twice with ice-cold PBS and the plates were kept cool on ice until adding the lysis buffer [1% sodium dodecyl sulfate (SDS) and 1 N NaOH]. Then, the cell-associated radioactivity of the respective tritium-labeled substrate or ligand was quantified by liquid scintillation counting using MicroScint-20 scintillation cocktail (Revvity) in a Packard Microplate Scintillation Counter TopCount NXT (Packard Instrument Company). For IC50 transport inhibition measurements, the mean uptake values measured in non-carrier-expressing HEK293 control cells were defined as 0% uptake control and were subtracted from all other values. Values from cells without inhibitor and solvent alone were set to 100%. Finally, all net transport data were expressed as uptake or binding as % of control. All transport or inhibition graphs were generated with GraphPad Prism 6 (GraphPad). Determination of half maximal inhibitory concentrations (IC50) was done by nonlinear regression analysis using the equation log (inhibitor) versus response—variable slope settings. All data points of the IC50 curves represent means ± SD of quadruplicate determinations. For Km measurements, BS uptake in the absence of sodium was regarded as carrier-independent unspecific uptake and was subtracted from the transport rates in the presence of sodium to obtain carrier-specific uptake rates (indicated as dashed lines). From the specific uptake rates, Michaelis Menten Km values were calculated by non-linear regression analysis.

SOAT = target: T2, SOAT (Homo sapiens, UniProt Q3KNW5); assay: [3H]DHEAS transport inhibition assay in SOAT-HEK293 cells; assay type: cell-based; conditions: 1 μM [3H]DHEAS; for IC50: 10 min, SOAT-HEK293, two independent experiments
T2 construct: stably transfected with the full open reading frames of human NTCP, ASBT, SOAT, OATP1B1, OATP1B3, OATP2B1, and murine Asbt (mAsbt); expressed in transfected cells; host or cells: HEK293 (Flp-In), stably transfected, tetracycline-induced
T2 sequence (Q3KNW5 1-377): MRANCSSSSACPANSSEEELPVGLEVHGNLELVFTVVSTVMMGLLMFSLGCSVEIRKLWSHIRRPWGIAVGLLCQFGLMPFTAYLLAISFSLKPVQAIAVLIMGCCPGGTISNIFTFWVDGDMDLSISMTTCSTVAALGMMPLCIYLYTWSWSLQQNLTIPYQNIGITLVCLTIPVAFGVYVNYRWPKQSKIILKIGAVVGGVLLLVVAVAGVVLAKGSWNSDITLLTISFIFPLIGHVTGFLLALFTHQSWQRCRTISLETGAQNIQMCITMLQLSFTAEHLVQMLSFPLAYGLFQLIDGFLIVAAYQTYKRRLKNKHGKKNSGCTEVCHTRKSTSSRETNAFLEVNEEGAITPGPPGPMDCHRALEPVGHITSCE
Excerpt: as §1, §2

ASBT = conditions: cited from earlier work; for IC50: read-out: IC50 ASBT inhibition

SMILES	IC50 (NTCP)	IC50 (SOAT)	NTCP inhibition (in words) (NTCP)	SOAT inhibition (in words) (SOAT; inhibitor up to 100 μM)	IC50 (ASBT; ref PMDA Goofice Report on the Deliberation Results)	IC50 ratio for ASBT versus NTCP inhibition (ASBT; reported by the PMDA, ref PMDA)	IC50 (ASBT; ASBT expressed in baby hamster kidney H-14 cell line, ref FDA NDA 214662 Livmarli)	IC50 (ASBT; ASBT-expressing HEK293 cells, ref EMA EPAR Risk management plan for odevixibat)
CCCCC1(CCCC)CN(c2ccccc2)c2cc(SC)c(OCC(=O)N[C@@H](C(=O)NCC(=O)O)c3ccccc3)cc2S(=O)(=O)C1 [elobixibat]	36.3 µM and 66.1 µM	3.2 µM and 3.3 µM			0.00053 µM	0.0022		
CCCC[C@]1(CC)CS(=O)(=O)c2cc(CNC(CC(=O)O)CC(=O)O)c(OC)cc2[C@@H](c2ccccc2)N1 [linerixibat]			no significant NTCP inhibition	failed to significantly inhibit SOAT				
CCCCC1(CCCC)CS(=O)(=O)c2ccc(N(C)C)cc2[C@@H](c2ccc(OCCCC[N+]34CCN(CC3)CC4)cc2)[C@H]1O [SC-435]		8.6 µM and 13.5 µM	no significant NTCP inhibition					

Now from value to compound, other results behind:

IC50 (NTCP)	IC50 (SOAT)	NTCP inhibition (in words) (NTCP)	SOAT inhibition (in words) (SOAT; inhibitor up to 100 μM)	SMILES	IC50 (ASBT; ref PMDA Goofice Report on the Deliberation Results)	IC50 ratio for ASBT versus NTCP inhibition (ASBT; reported by the PMDA, ref PMDA)	IC50 (ASBT; ASBT expressed in baby hamster kidney H-14 cell line, ref FDA NDA 214662 Livmarli)	IC50 (ASBT; ASBT-expressing HEK293 cells, ref EMA EPAR Risk management plan for odevixibat)
91.5 µM and 98.5 µM	4.5 µM and 5.9 µM			CCCCC1(CCCC)CS(=O)(=O)c2ccc(N(C)C)cc2[C@@H](c2ccc(OCc3ccc(C[N+]45CCN(CC4)CC5)cc3)cc2)[C@H]1O [maralixibat]			0.00028 µM	
9.9 µM and 17 µM	5.5 µM and 5.6 µM			CCCCC1(CCCC)CN(c2ccccc2)c2cc(SC)c(OCC(=O)N[C@@H](C(=O)N[C@@H](CC)C(=O)O)c3ccc(O)cc3)cc2S(=O)(=O)N1 [odevixibat]				0.00013 µM
